Data on eleven compounds can be found in US20220213197A1 (priority 2019, published 2022).

Assay [1] relates to influenza A/California/07/09(H1N1)pdm09. Type of assay: in vivo, mice.
The test system of assay [2] is Chlamydophila pneumonia CM1 strain. Kind of assay: Lung infection model with Chlamydophila pneumonia. Type of assay: in vivo, C57BL/6J mice.
The subject of assay [3] is Clostridium perfringens (ATCC 13124).
The subject of assay [4] is Klebsiella pneumoniae 8637 strain. Kind of assay: Neutropenic lung infection model. The following applies: for Decrease in the number of CFU vs control (placebo): Day 5. Type of assay: in vivo, ICR mice.
Assay [5] relates to carrageenan induced inflammation in rats. Kind of assay: Carrageenan induced paw oedema. Type of assay: in vivo. As to the method: Inflammatory response was induced in animals by subplantar injection (into the plantar aponeurosis of the left hind paw) of 0.1 ml 1% carrageenan solution.
The severity of inflammatory response was assessed by estimating oedema weight gain in mg calculated as a difference between the paw weights with and without oedema.
A general note: Carrageenan injected into the paw causes an acute inflammation.

Assay [6] concerns Streptococcus pyogenes (ATCC BAA-2469). Kind of assay: Soft tissue (thigh) infection model in neutropenic mice. The class given is in vivo. The following applies: 24 hours post infection.
In assay [7] the test system is Mycobacterium tuberculosis. Kind of assay: Antituberculosis activity in guinea pig model of experimental tuberculosis. Conditions: in vivo.
The subject of assay [8] is Pseudomonas aeruginosa (RP73). Kind of assay: Pseudomonas aeruginosa lung infection in rats. The class given is in vivo, Sprague-Dawley rats.
The subject of assay [9] is Klebsiella pneumoniae BAA-1705. Kind of assay: Bacterial pneumonia in neutropenic mice, AMC-resistant strain (Study No. 1). Type of assay: in vivo.
[10] abbreviates: 48 hours after infection (medicament: 48 hours and onwards).

Several values for one entry are separate records, joined by “and”; a condition that tells them apart may be missing. Equal entries are not always repeated. Where two headings read alike, the source gives them in different places.

With `CCOC(=O)C1=C[C@@H](OC(CC)CC)[C@H](NC(C)=O)[C@@H](N)C1` [Tamiflu, Oseltamivir], the “Body weights of experimental animals expressed as M ± SD” value in assay [1] (Day 0) came to 16.7 ± 1.2; in assay [1] (Day 5) it was 15.5 ± 1.4; in [1] (Day 9), 13.6 ± 1.7; in assay [1] (Day 12), 14.9 ± 2.2; in assay [1] (Day −5), 17.8 ± 1.2; in assay [1] (Day −15) it was 16.1 ± 1.0. Further, the “Protection index, %” value in assay [1] (PI=((Mc−Me)/Mc)×100%) was 57.1%. Moreover, in assay [1] (mean life expectancy over 14 days), the “MLE” value was determined as 8.6 days. Further, in [1] (mouse, in vivo), the “Mortality rate, %” value was determined as 30%. The “Viral titer in lung tissue, Mean” value in [1] (mouse, in vivo) is reported as 4.8 Ig TCID50/0.2 ml. Further, the “Viral titer in lung tissue, individual animals” value in [1] (mouse, in vivo, listed as 2) is 4.5 Ig TCID50/0.2 ml (5×) and 5.0 Ig TCID50/0.2 ml (2×) and 4.0 Ig TCID50/0.2 ml and 5.5 Ig TCID50/0.2 ml and 6.0 Ig TCID50/0.2 ml. Moreover, in [1] (vs negative control), the “MLE increase” value is listed as 0.2 days.

Take `CC[C@H]1OC(=O)[C@H](C)[C@@H](O[C@H]2C[C@@](C)(OC)[C@@H](O)[C@H](C)O2)[C@H](C)[C@@H](O[C@@H]2O[C@H](C)C[C@H](N(C)C)[C@H]2O)[C@](C)(O)C[C@@H](C)CN(C)[C@H](C)[C@@H](O)[C@]1(C)O` [azithromycin]: in assay [2] (Day 3 after infection), the Death rate came out at 19%; the “IL-1β concentration in lung tissue, % of the control levels (Group 1)” value (“IL-1β concentration in lung tissue, %” below) came out at 17%; the “IL-6 concentration in lung tissue, % of the control levels (Group 1)” value (“IL-6 concentration in lung tissue, %” for short) stood at 15%; the “Number of infected HEp2 cells (bacterial load of lung homogenate), % of placebo” value (“Number of infected HEp2 cells … % of placebo” for short) worked out at 15%. In [2] (Day 6 after infection), the “IL-1β concentration in lung tissue, %” value was 7%; the “IL-6 concentration in lung tissue, %” value came to 8%; the “Number of infected HEp2 cells … % of placebo” value turned out to be 17%. In assay [2] (Day 12 after infection), the “IL-1β concentration in lung tissue, %” value is listed as 6%; the “IL-6 concentration in lung tissue, %” value is recorded as 5%; the “Number of infected HEp2 cells … % of placebo” value came out at 5%. Also, the Survival rate in [2] (whole study, deaths first recorded on Day 3) was 81%.

Take `CO[C@@]1(NC(=O)Cc2cccs2)C(=O)N2C(C(=O)O)=C(COC(N)=O)CS[C@@H]21` [cefoxitin]: the Animals alive is 55% in [3] (24 hours after infection), 15% in assay [3] (setting [10]) and 15% in [3] (72 hours after infection).

As to `C[C@@H](O)[C@H]1C(=O)N2C(C(=O)O)=C(SCCN=CN)C[C@H]12` [imipenem], the Animals survived in assay [4] (Day 1 after infection) was found to be 85%; in assay [4] (Day 2), 70%; in assay [4] (Day 3 (imipenem: Day 3 and onwards)) it was 50%. For the same compound, the “Decrease in the number of CFU vs control (placebo)” value was 67% in [4] (blood); 61% in assay [4] (kidneys); 40% in assay [4] (liver); 48% in assay [4] (lungs); 45% in [4] (spleen).

Take `COc1ccc2c(c1)c(CC(=O)O)c(C)n2C(=O)c1ccc(Cl)cc1` [indomethacin, Indomethacin]: the “Decrease of oedema weight as compared to the control” value in assay [5] came to 57.9%.

With `CC(=O)NC[C@H]1CN(c2ccc(N3CCOCC3)c(F)c2)C(=O)O1` [placebo + L, linezolid], the “Mean bacterial burden in the femoral tissue” value in assay [6] was 5.5 CFU/g, log10.

With `CC[C@H]1OC(=O)[C@H](C)C(=O)[C@H](C)[C@@H](O[C@@H]2O[C@H](C)C[C@H](N(C)C)[C@H]2O)[C@](C)(OC)C[C@@H](C)C(=O)[C@H](C)[C@H]2N(CCCCn3cnc(-c4cccnc4)c3)C(=O)O[C@]12C` [placebo + T, telithromycin], in assay [6], the “Mean bacterial burden in the femoral tissue” value is reported as 8.4 CFU/g, log10.

As for `NNC(=O)c1ccncc1` [placebo + isoniazid, Isoniazid], in assay [7], the “Difference between initial and final body weight of animals” value is 180.6 ± 28.4 g; the “Life expectancy, units” value turned out to be 2.7 ± 0.09 units.

Take `CN(C)[C@@H]1C(O)=C(C(N)=O)C(=O)[C@@]2(O)C(O)=C3C(=O)c4c(O)cccc4[C@@](C)(O)[C@H]3C[C@@H]12` [tetracycline]: the Animals alive in assay [3] (24 hours after infection) was found to be 85%; in assay [3] (setting [10]), 80%; in assay [3] (72 hours after infection), 80%.

With `NC[C@H]1O[C@H](O[C@H]2[C@H](O)[C@@H](O[C@H]3O[C@H](CO)[C@@H](O)[C@H](N)[C@H]3O)[C@H](N)C[C@@H]2N)[C@H](N)C[C@@H]1O` [tobramycin], in [8] (Day 5), the “Decrease of bronchoalveolar lavage CFU count compared to placebo” value is recorded as 88%, the “Decrease of bronchoalveolar lavage CFU count compared to the untreated animals” value was determined as 88%, the “Reduction of lung CFU count compared to placebo” value was 19% and the “Reduction of lung CFU count compared to the untreated animals” value worked out at 29%. Further, the “Overall decrease in body weight by the end of the study” value in assay [8] (vs baseline) was determined as 4%.

On to Gentamicin, for which, in assay [9] (AMC-resistant strain, 10^6 CFU/mouse), the Animals survived came to 70%. For the same compound, the Body weight evolution entry in [9] (follow-up period) was “body weight evolution was observed from 54 h”.
